Like-named read-outs stand apart in the source and are kept apart here.
Assays:
Format in all cases: cell-based
SARS-CoV-2 Wuhan variant [1] = system: SARS-CoV-2 Wuhan variant
[2] = system: SARS-CoV-2 Omicron variant
SARS-CoV-2 Wuhan variant [3] = experiment: microbe, parasite or virus in culture
SARS-CoV-2 D614G variant = system: SARS-CoV-2 D614G variant
SARS-CoV-2 Alpha variant = experiment: microbe, parasite or virus in culture
SARS-CoV-2 Delta variant = experiment: microbe, parasite or virus in culture
[4] = Severe acute respiratory syndrome coronavirus 2, Calu-3

Compound | antiviral activity after a single replication cycle (viral titre, in words) (SARS-CoV-2 Wuhan variant [1]) | antiviral activity after a single replication cycle (viral titre, in words) [2] | SI (selectivity index) (SARS-CoV-2 Wuhan variant [3]) | IC50 (SARS-CoV-2 Wuhan variant [3]; [4]) [nM] | IC50 (SARS-CoV-2 D614G variant) [nM] | SI (selectivity index) (SARS-CoV-2 Alpha variant) | IC50 (SARS-CoV-2 Alpha variant; [4]) [nM] | SI (selectivity index) (SARS-CoV-2 Delta variant) | IC50 (SARS-CoV-2 Delta variant; [4]) [nM] | IC50 (SARS-CoV-2 Wuhan variant [3]; read-out: IC50) [nM] | IC50 (SARS-CoV-2 Alpha variant; read-out: IC50) [nM] | IC50 (SARS-CoV-2 Delta variant; read-out: IC50) [nM]
N[C@@H](CCC(=O)N[C@@H](CS)C(=O)NCC(=O)O)C(=O)O [GSH, glutathione] | strong antiviral activity | effective against the Omicron variant |  |  |  |  |  |  |  |  |  | 
O=C(O)c1cc(/N=N/c2ccc(S(=O)(=O)Nc3ccccn3)cc2)ccc1O [Sulfasalazine] |  |  | > 20.51 | 24400 ± 5370 | 20000 ± 2070 | > 23.87 | 20900 ± 4230 | > 20.82 | 24000 ± 3200 |  |  | 
COc1cc(Nc2ncc(F)c(Nc3ccc4c(n3)NC(=O)C(C)(C)O4)n2)cc(OC)c1OC [Tamatinib] |  |  |  | 103 ± 2.7 | 115 ± 6.77 | 69.20 | 82.95 ± 0.68 | 57.84 | 99.2 ± 1.4 |  |  | 
COc1cc2c(Nc3ccc(Br)cc3F)ncnc2cc1OCC1CCN(C)CC1 [Vandetanib] |  |  | 96.46 | 38.9 ± 2.4 | 33.4 ± 2.72 | 123.55 | 30.4 ± 1.54 | 72.91 | 51.5 ± 5.55 |  |  | 
MKI-1 |  |  |  |  | 46.4 ± 0.82 |  |  |  |  | 46.5 ± 1.8 | 31.7 ± 4.18 | 48.4 ± 2.07
N-acetyl cysteine [NAC] | strong antiviral activity | effective against the Omicron variant |  |  |  |  |  |  |  | 549000 |  | 
imidazole ketone erastin [IKE] | strong antiviral activity | effective against the Omicron variant |  |  | 88.5 ± 105 |  |  |  |  | 99 ± 8.12 | 79.9 ± 4.11 | 113 ± 3.71

— article PMC11411213 (Journal of Molecular Cell Biology, 2024)
